# Results reported in patent publication US9266835B2, “Quinoline derivatives useful as CB-1 inverse agonists” (JANSSEN PHARMACEUTICA NV, priority 2014, dated 2016).
# Where two headings read alike, the source gives them in different places.
# How the values were obtained:
# [1] = Chronic DIO Mouse, second study: plasma and brain concentrations; format: in vivo; details: DIO mice; for concentration at 2 h: male, mouse, oral
# Experimental: Male 14-20-week old diet-induced obese mice were ordered from Taconic. Mice were started on a 60% fat diet (D12492, Research Diets, New Brunswick, N.J.) at 6 weeks of age. Mice were single-housed.
# (§1) Test compounds were formulated in 10% PEG400 and 10% solutol. Test compounds were administered by oral gavage (5 ml kg^−1).
# The test compound was formulated in 10% PEG400 and 10% solutol. […] At the end of the experiment, the mice were euthanized and blood and tissues were collected.
# In a second study, Compound #44 was tested according to the procedure as described above, with results as listed in Tables BIO-5A through 5G, below.
# [2] = target: Human CB2R (Cannabinoid receptor 2) (Homo sapiens (Human), UniProt P34972); experiment: CB-2 in vitro cAMP assay (HTRF), inverse agonism; format: cell-based; details: mean where tested more than once
# Sequence of Human CB2R (Cannabinoid receptor 2) (P34972 whole entry): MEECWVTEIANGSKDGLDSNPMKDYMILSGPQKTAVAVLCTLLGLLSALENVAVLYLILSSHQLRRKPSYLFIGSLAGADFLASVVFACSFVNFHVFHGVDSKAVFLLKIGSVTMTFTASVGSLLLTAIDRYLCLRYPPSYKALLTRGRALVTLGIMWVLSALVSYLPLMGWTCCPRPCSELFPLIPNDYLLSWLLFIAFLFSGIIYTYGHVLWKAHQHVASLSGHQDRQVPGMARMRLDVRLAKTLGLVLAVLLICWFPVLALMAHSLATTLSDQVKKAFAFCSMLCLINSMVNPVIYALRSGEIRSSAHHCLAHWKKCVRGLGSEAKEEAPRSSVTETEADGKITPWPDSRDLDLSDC
# [3] = Open Field Locomotor Activity in Rats (CNS activity), stereotypic counts; format: in vivo, rat; details: n=8, 4 hours, dose not printed in row (doses 3 and 10 mg/kg)
# Text: Male Sprague Dawley rats were ordered from Charles River (225-250 gm upon arrival). They were fed standard chow diet (Purina 5001) and housed 2 per cage. Male C57bl/6j mice were ordered from Charles River at 22-25 g and housed 3 per cage. They were fed standard chow (Purina 5001). All animals were housed in a temperature-controlled room with 12-hour light/dark cycle. Animals were given food and water ad libitum, except as noted.
# as §1
# Male SD rats were weighed and transferred to the Activity Chambers with access to water. After a 2-hr acclimation period, the rats were dosed with vehicle or test compound (@ 3 and 10 mg/kg). The Activity Chamber monitoring software program was initiated and automatically recorded rat activity in each chamber for a period of 4 hours. At the end of the 4 hour monitoring period, the software was stopped and the rats were removed from the activity chambers. The rats were anesthetized and blood samples were obtained via retro-orbital puncture to determine plasma concentration of compounds. The rats were immediately euthanized with CO2 and the brains removed, washed with PBS, frozen on dry ice and stored at −80° C. for receptor occupancy (RO) analysis. […]
smiles,measurement,setting,value
"O=c1cc(NC2CCN(S(=O)(=O)C(F)(F)F)CC2)c2cc(C(c3ccc(Cl)cc3)c3ccc(Cl)cc3)ccc2[nH]1 [Compound #44, 6-(bis(4-chlorophenyl)methyl)-4-(1-(trifluoromethylsulfonyl)piperidin-4-ylamino)quinolin-2(1H)-one]",Brain concentration (Std Dev),"[1]; 0.3 mg/kg, Day 2, 2 hours post dose",BLOQ*
same,Brain concentration (Std Dev),"[1]; 0.3 mg/kg, Day 23, 2 hours post dose",BLOQ**
same,Brain concentration (Std Dev),"[1]; 1 mg/kg, Day 2, 2 hours post dose",BLOQ*
same,Brain concentration (Std Dev),"[1]; 3 mg/kg, Day 2, 2 hours post dose",BLOQ*
same,concentration at 2 h,"[1]; brain, 1 mg/kg, 1 mg/kg, Day 23, 2 hours post dose, read-out: Brain concentration (Std Dev)",36.8 ng/g
same,concentration at 2 h,"[1]; brain, 3 mg/kg, 3 mg/kg, Day 23, 2 hours post dose, read-out: Brain concentration (Std Dev)",100 ng/g
same,concentration at 2 h,"[1]; brain, 10 mg/kg, 10 mg/kg, Day 2, 2 hours post dose, read-out: Brain concentration (Std Dev)",62.3 ng/g
same,concentration at 2 h,"[1]; brain, 10 mg/kg, 10 mg/kg, Day 23, 2 hours post dose, read-out: Brain concentration (Std Dev)",201 ng/g
same,concentration at 2 h,"[1]; plasma, 0.3 mg/kg, 0.3 mg/kg, Day 2, 2 hours post dose, read-out: Plasma concentration (Std Dev)",61.3 ng/mL
same,concentration at 2 h,"[1]; plasma, 0.3 mg/kg, 0.3 mg/kg, Day 23, 2 hours post dose, read-out: Plasma concentration (Std Dev)",192 ng/mL
same,concentration at 2 h,"[1]; plasma, 1 mg/kg, 1 mg/kg, Day 2, 2 hours post dose, read-out: Plasma concentration (Std Dev)",310 ng/mL
same,concentration at 2 h,"[1]; plasma, 1 mg/kg, 1 mg/kg, Day 23, 2 hours post dose, read-out: Plasma concentration (Std Dev)",515 ng/mL
same,concentration at 2 h,"[1]; plasma, 3 mg/kg, 3 mg/kg, Day 2, 2 hours post dose, read-out: Plasma concentration (Std Dev)",759 ng/mL
same,concentration at 2 h,"[1]; plasma, 3 mg/kg, 3 mg/kg, Day 23, 2 hours post dose, read-out: Plasma concentration (Std Dev)",1560 ng/mL
same,concentration at 2 h,"[1]; plasma, 10 mg/kg, 10 mg/kg, Day 2, 2 hours post dose, read-out: Plasma concentration (Std Dev)",2490 ng/mL
same,concentration at 2 h,"[1]; plasma, 10 mg/kg, 10 mg/kg, Day 23, 2 hours post dose, read-out: Plasma concentration (Std Dev)",5280 ng/mL
same,EC50,[2],5.23 µM
same,Stereotypic Counts (MEAN),[3]; first #44 row,3250
same,Stereotypic Counts (MEAN),[3]; second #44 row,2850
